# Test results as given in PubChem BioAssay AID248 (DTP/NCI, 2004).
# “And” between values parts separate entries of the source, which are not always exact repeats. Equal values may be shown once. Toxic doses and inconclusive results are not listed.
# Test system: L1210 leukemia ip in BDF1 mice, survival T/C
# Assay: NCI In Vivo Anticancer Drug Screen. Data for tumor model L1210 Leukemia (intraperitoneal) in B6D2F1 (BDF1) mice
# Details: endpoint: mean survival time, higher = longer survival
# Procedure, shortened: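 Tumor cells were implanted, animals were treated, and survival was followed. The result divides the treated measurement by the vehicle-control measurement.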
# [1] = dose: 100.0 mg/kg/injection, schedule: Q01DX001 (ip), vehicle: other
# [2] = dose: 200.0 mg/kg/injection, schedule: Q01DX001 (ip), vehicle: other
# [3] = dose: 400.0 mg/kg/injection, schedule: Q01DX001 (ip), vehicle: other
# [4] = dose: 100.0 mg/kg/injection, schedule: Q01DX009 (ip), vehicle: Klucel (hydroxypropylcellulose) (HPC)
# [5] = dose: 200.0 mg/kg/injection, schedule: Q01DX009 (ip), vehicle: Klucel (hydroxypropylcellulose) (HPC)
# [6] = dose: 400.0 mg/kg/injection, schedule: Q01DX009 (ip), vehicle: Klucel (hydroxypropylcellulose) (HPC)
# [7] = dose: 100.0 mg/kg/injection, schedule: Q01DX001 (ip), vehicle: Klucel (hydroxypropylcellulose) (HPC)
# [8] = dose: 100.0 mg/kg/injection, schedule: Q04DX003 (ip), vehicle: Klucel (hydroxypropylcellulose) (HPC)
# [9] = dose: 200.0 mg/kg/injection, schedule: Q01DX001 (ip), vehicle: Klucel (hydroxypropylcellulose) (HPC)
# [10] = dose: 200.0 mg/kg/injection, schedule: Q04DX003 (ip), vehicle: Klucel (hydroxypropylcellulose) (HPC)
# [11] = dose: 400.0 mg/kg/injection, schedule: Q01DX001 (ip), vehicle: Klucel (hydroxypropylcellulose) (HPC)
# [12] = dose: 400.0 mg/kg/injection, schedule: Q04DX003 (ip), vehicle: Klucel (hydroxypropylcellulose) (HPC)
# [13] = dose: 100.0 mg/kg/injection, schedule: Q04DX003 (ip), vehicle: saline
# [14] = dose: 200.0 mg/kg/injection, schedule: Q04DX003 (ip), vehicle: saline
# [15] = dose: 400.0 mg/kg/injection, schedule: Q04DX003 (ip), vehicle: saline
# [16] = dose: 100.0 mg/kg/injection, schedule: Q01DX009 (ip), vehicle: saline
# [17] = dose: 50.0 mg/kg/injection, schedule: Q01DX001 (ip), vehicle: saline
# [18] = dose: 100.0 mg/kg/injection, schedule: Q01DX001 (ip), vehicle: saline
# [19] = dose: 200.0 mg/kg/injection, schedule: Q01DX001 (ip), vehicle: saline
# [20] = dose: 400.0 mg/kg/injection, schedule: Q01DX001 (ip), vehicle: saline
# [21] = dose: 200.0 mg/kg/injection, schedule: Q01DX009 (ip), vehicle: saline
# [22] = dose: 400.0 mg/kg/injection, schedule: Q01DX009 (ip), vehicle: saline
structure (smiles),measurement,setting,value
COC(=O)C=P(c1ccccc1)(c1ccccc1)c1ccccc1,T/C,"dose: 75.0 mg/kg/injection, schedule: Q01DX001 (ip), vehicle: carboxymethylcellulose (CMC)",98 % of control
same,T/C,"dose: 150.0 mg/kg/injection, schedule: Q01DX001 (ip), vehicle: carboxymethylcellulose (CMC)",98 % of control
same,T/C,"dose: 300.0 mg/kg/injection, schedule: Q01DX001 (ip), vehicle: carboxymethylcellulose (CMC)",101 % of control
CC(C)CNC(=O)c1cccc(-c2ccccc2C(=O)NCC(C)C)c1,T/C,[1],91 % of control
same,T/C,[2],93 % of control
same,T/C,[3],96 % of control
O=[N+]([O-])c1ccc(S(=O)(=O)C2CCCCC2Cl)cc1 (stereo unspecified),T/C,[4],88 % of control
same,T/C,[5],91 % of control
same,T/C,[6],90 % of control
O=C(NC(=O)C(Cl)Cl)Nc1cccc2c1Cc1ccccc1-2,T/C,"dose: 50.0 mg/kg/injection, schedule: Q04DX003 (ip), vehicle: Klucel (hydroxypropylcellulose) (HPC)",105 % of control
same,T/C,[7],100 % of control
same,T/C,[4],98 % of control
same,T/C,[8],96 % of control and 101 % of control
same,T/C,[9],89 % of control
same,T/C,[5],93 % of control
same,T/C,[10],100 % of control
same,T/C,[11],94 % of control
same,T/C,[6],93 % of control
same,T/C,[12],90 % of control and 92 % of control
CC(CO)(CO)[N+](=O)[O-],T/C,[13],101 % of control
same,T/C,[14],96 % of control
same,T/C,[15],93 % of control
CSc1ccc(OC(=O)Nc2ccc(Cl)c(Cl)c2)cc1C,T/C,[4],106 % of control
same,T/C,[8],88 % of control
same,T/C,[5],92 % of control
same,T/C,[10],93 % of control
same,T/C,[6],92 % of control
same,T/C,[12],88 % of control
Cc1ccc(S(=O)(=O)N(CCCBr)c2ccc(C3(CCl)OCCO3)cc2)cc1,T/C,[7],91 % of control
same,T/C,[9],91 % of control
same,T/C,[11],91 % of control
CN(C)CCC(c1ccccc1)c1cc(Cl)ccn1 (stereo unspecified),T/C,"dose: 6.25 mg/kg/injection, schedule: Q01DX009 (ip), vehicle: saline",95 % of control
same,T/C,"dose: 12.5 mg/kg/injection, schedule: Q01DX009 (ip), vehicle: saline",97 % of control
same,T/C,"dose: 12.5 mg/kg/injection, schedule: Q04DX003 (ip), vehicle: saline",106 % of control
same,T/C,"dose: 25.0 mg/kg/injection, schedule: Q01DX009 (ip), vehicle: saline",95 % of control
same,T/C,"dose: 25.0 mg/kg/injection, schedule: Q04DX003 (ip), vehicle: saline",103 % of control
same,T/C,"dose: 50.0 mg/kg/injection, schedule: Q01DX009 (ip), vehicle: saline",97 % of control
same,T/C,"dose: 50.0 mg/kg/injection, schedule: Q04DX003 (ip), vehicle: saline",103 % of control
same,T/C,[16],100 % of control
same,T/C,[13],106 % of control
O=C(N/N=C/c1ccccc1)C(Oc1ccccc1)c1ccccc1 (stereo unspecified),T/C,"dose: 100.0 mg/kg/injection, schedule: Q01DX001 (ip), vehicle: carboxymethylcellulose (CMC)",94 % of control
same,T/C,"dose: 200.0 mg/kg/injection, schedule: Q01DX001 (ip), vehicle: carboxymethylcellulose (CMC)",94 % of control
same,T/C,"dose: 400.0 mg/kg/injection, schedule: Q01DX001 (ip), vehicle: carboxymethylcellulose (CMC)",100 % of control
O=C1C(c2[nH]c3cc4c(cc3c2O)OCO4)=Nc2cc3c(cc21)OCO3,T/C,[17],100 % of control
same,T/C,[18],103 % of control
same,T/C,[19],97 % of control
same,T/C,[20],94 % of control
C[n+]1ccc(/C=C\Nc2ccccc2)cc1,T/C,"dose: 75.0 mg/kg/injection, schedule: Q01DX001 (ip), vehicle: other",94 % of control
same,T/C,"dose: 150.0 mg/kg/injection, schedule: Q01DX001 (ip), vehicle: other",94 % of control
same,T/C,"dose: 300.0 mg/kg/injection, schedule: Q01DX001 (ip), vehicle: other",94 % of control
O=S(=O)(O)CCN1CCN(CCO)CC1,T/C,[16],96 % of control
same,T/C,[13],95 % of control
same,T/C,[21],91 % of control
same,T/C,[14],101 % of control
same,T/C,[22],98 % of control
same,T/C,[15],97 % of control
O=C(O)c1ccc(Oc2nc3ccccc3s2)cc1,T/C,"dose: 100.0 mg/kg/injection, schedule: Q01DX009 (ip), vehicle: saline with Tween-80",102 % of control
same,T/C,"dose: 100.0 mg/kg/injection, schedule: Q04DX003 (ip), vehicle: saline with Tween-80",111 % of control
same,T/C,"dose: 200.0 mg/kg/injection, schedule: Q01DX009 (ip), vehicle: saline with Tween-80",120 % of control
same,T/C,"dose: 200.0 mg/kg/injection, schedule: Q04DX003 (ip), vehicle: saline with Tween-80",97 % of control
same,T/C,"dose: 400.0 mg/kg/injection, schedule: Q04DX003 (ip), vehicle: saline with Tween-80",86 % of control
Cc1ncc(C(O)c2ccc(Cl)cc2)n1Cc1ccccc1 (stereo unspecified),T/C,[8],100 % of control
same,T/C,[10],94 % of control
same,T/C,[12],104 % of control
O=C1CCCC1CN1CCOCC1 (stereo unspecified),T/C,[16],92 % of control
same,T/C,[21],96 % of control
same,T/C,[22],94 % of control
CN(C)c1ccc(C(=O)CCCN2CCC3(CC2)C(=O)NCN3c2ccccc2)cc1,T/C,[7],100 % of control
same,T/C,[9],94 % of control
same,T/C,[11],100 % of control
Cc1coc(NS(=O)(=O)c2ccc(N=Nc3c(N)[nH]c(=S)[nH]c3=O)cc2)c1C,T/C,[18],113 % of control
same,T/C,[19],107 % of control
same,T/C,[20],101 % of control
CCC(=O)OCNC(=O)NNC(=O)CCCC(=O)NNC(=O)NCOC(=O)CC,T/C,[17],102 % of control
same,T/C,[18],102 % of control
same,T/C,[19],106 % of control
same,T/C,[20],100 % of control
O=C(CCO)Nc1cccc(Cl)c1,T/C,[7],98 % of control
same,T/C,[4],93 % of control
same,T/C,[9],101 % of control
same,T/C,[5],88 % of control
same,T/C,[11],91 % of control
same,T/C,[6],92 % of control
N#Cc1ccc(-c2ccc(C#N)cc2Br)c(Br)c1,T/C,[4],93 % of control
same,T/C,[8],94 % of control
same,T/C,[5],93 % of control
same,T/C,[10],95 % of control
same,T/C,[6],88 % of control
same,T/C,[12],96 % of control
ICc1ccnc2ccccc12,T/C,[1],100 % of control
same,T/C,[2],103 % of control
same,T/C,[3],100 % of control
O=C(O)C(c1ccccc1)(c1ccccc1)c1ccccc1,T/C,[17],101 % of control
same,T/C,[18],106 % of control
same,T/C,[19],103 % of control
CN(Cc1cnc2nc(N)nc(N)c2n1)c1ccc(C(=O)NC(CCC(=O)O)C(=O)O)c2ccccc12 (stereo unspecified),T/C,"dose: 2.0 mg/kg/injection, schedule: Q01DX009 (ip), vehicle: saline",159 % of control
same,T/C,"dose: 2.0 mg/kg/injection, schedule: Q04DX003 (ip), vehicle: saline",120 % of control
same,T/C,"dose: 4.0 mg/kg/injection, schedule: Q01DX009 (ip), vehicle: saline",152 % of control and 172 % of control
same,T/C,"dose: 4.0 mg/kg/injection, schedule: Q04DX003 (ip), vehicle: saline",122 % of control
same,T/C,"dose: 8.0 mg/kg/injection, schedule: Q01DX009 (ip), vehicle: saline",156 % of control and 160 % of control
same,T/C,"dose: 8.0 mg/kg/injection, schedule: Q04DX003 (ip), vehicle: saline",106 % of control
same,T/C,"dose: 13.0 mg/kg/injection, schedule: Q01DX009 (ip), vehicle: saline",123 % of control
same,T/C,"dose: 64.0 mg/kg/injection, schedule: Q04DX003 (ip), vehicle: saline",115 % of control
same,T/C,"dose: 128.0 mg/kg/injection, schedule: Q04DX003 (ip), vehicle: saline",101 % of control
CC(=O)Nc1c(C)cccc1[N+](=O)[O-],T/C,"dose: 100.0 mg/kg/injection, schedule: Q01DX001 (ip), vehicle: saline with Tween-80",94 % of control
CN=C(N)c1ccc(N=C(N)c2ccc(N=C(N)c3ccc(C(N)=NC)cc3)cc2)cc1,T/C,"dose: 3.7 mg/kg/injection, schedule: Q01DX001 (ip), vehicle: water",108 % of control
same,T/C,"dose: 5.3 mg/kg/injection, schedule: Q01DX001 (ip), vehicle: water",103 % of control
same,T/C,"dose: 8.0 mg/kg/injection, schedule: Q01DX001 (ip), vehicle: water",102 % of control
same,T/C,"dose: 12.0 mg/kg/injection, schedule: Q01DX001 (ip), vehicle: water",108 % of control
O=C(CCN1CC1)Nc1cccc(NC(=O)CCN2CC2)c1,T/C,"dose: 2.5 mg/kg/injection, schedule: Q01DX001 (ip), vehicle: Klucel (hydroxypropylcellulose) (HPC)",112 % of control
same,T/C,"dose: 40.0 mg/kg/injection, schedule: Q01DX001 (ip), vehicle: Klucel (hydroxypropylcellulose) (HPC)",153 % of control
